Structures are written as SMILES.

In the test the target is hS1P3 (Homo sapiens, UniProt Q99500). Put plainly: Suppressive effect on S1P-induced increase in [Ca2+]i, CHO-K1 cells expressing S1P3 (Fura 2-AM), IC50. Type of test: cell-based. Particulars: S1P solution 50 nmol/L, read-out: hS1P3 suppression IC50.
Sequence of hS1P3 (Q99500 whole entry): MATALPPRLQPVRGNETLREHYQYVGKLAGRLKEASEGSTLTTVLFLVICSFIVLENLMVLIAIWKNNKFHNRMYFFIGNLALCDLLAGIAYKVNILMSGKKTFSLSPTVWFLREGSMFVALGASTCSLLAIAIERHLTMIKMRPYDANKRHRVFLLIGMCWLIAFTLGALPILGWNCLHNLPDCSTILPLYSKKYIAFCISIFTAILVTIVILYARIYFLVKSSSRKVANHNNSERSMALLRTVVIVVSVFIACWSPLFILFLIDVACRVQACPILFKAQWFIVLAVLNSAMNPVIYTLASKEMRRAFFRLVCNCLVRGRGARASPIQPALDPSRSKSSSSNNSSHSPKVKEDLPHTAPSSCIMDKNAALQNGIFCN
Turning to `O=C(C(=NNc1ccc(Cl)cc1)Nc1cccc(F)c1)c1ccccc1` [Compound 1, 2-(4-Chlorophenylhydrazono)-2-(3-fluorophenylamino)acetophenone], the IC50 was 6.72 µM.

`O=C(C(=NNc1ccc(Cl)cc1)Nc1cc(Cl)nc(Cl)c1)c1ccccc1` [Compound 4, 2-(4-chlorophenylhydrazono)-2-(2,6-dichloropyridin-4-ylamino)acetophenone]: the half-inhibitory concentration (IC50) amounted to 2.81 µM. In the case of `O=C(C(=NNc1ccc(Cl)cc1)Nc1ccc(F)cc1)c1ccccc1` [Compound 9, 2-(4-chlorophenylhydrazono)-2-(4-fluorophenylamino)acetophenone] it was 4.57 µM; in that of `O=C(C(=NNc1ccc(Cl)cc1)Nc1cccc(Cl)c1)c1ccccc1` [Compound 11, 2-(3-chlorophenylamino)-2-(4-chlorophenylhydrazono)acetophenone], 5.34 µM; in that of `O=C(C(=NNc1ccc(Cl)cc1)Nc1ccc(Cl)cc1)c1ccccc1` [Compound 12, 2-(4-chlorophenylamino)-2-(4-chlorophenylhydrazono)acetophenone], 4.84 µM. For `CCOC(=O)C(=NNc1ccc(Cl)cc1)Nc1ccc(Cl)cc1` [Compound 14, ethyl 1-(4-chlorophenylamino)-1-(4-chlorophenylhydrazono)acetate], the IC50 amounted to 1.87 µM.

With `CCOC(=O)C(=NNc1ccc(Cl)cc1)Nc1cccc(C(F)(F)F)c1` [Compound 16, ethyl 1-(4-chlorophenylhydrazono)-1-(3-trifluoromethylphenylamino)acetate], the IC50 was found to be 3.94 µM. In the case of `CCOC(=O)C(=NNc1ccc(Cl)cc1)Nc1cc(F)cc(F)c1` [Compound 17, ethyl 1-(4-chlorophenylhydrazono)-1-(3,5-difluorophenylamino)acetate] it was 1.92 µM; in that of `CCOC(=O)C(=NNc1ccc(Cl)cc1)Nc1cc(Cl)cc(Cl)c1` [Compound 18, ethyl 1-(4-chlorophenylhydrazono)-1-(3,5-dichlorophenylamino)acetate], 2.34 µM; in that of `O=C(C(=NNc1ccc(Cl)cc1)Nc1ccc(Cl)cc1)N1CCCCC1` [Compound 23, [1-(4-chlorophenylamino)-1-(4-chlorophenylhydrazono)acetyl]piperidine], 14.5 µM. The result for `O=C(C(=NNc1ccc(Cl)cc1)Nc1cc(F)cc(F)c1)N1CCCCC1` [Compound 25, [1-(4-chlorophenylhydrazono)-1-(3,5-difluorophenylamino)acetyl]piperidine] reads 11.7 µM. In the case of `CC(C)(C)NC(=O)C(=NNc1ccc(Cl)cc1)Nc1cc(Cl)cc(Cl)c1` [Compound 30, N-tert-butyl-[1-(4-chlorophenylhydrazono)-1-(3,5-dichlorophenylamino)]acetamide] it was 12.3 µM; in that of `CC(C)(C)NC(=O)C(=NNc1ccc(Cl)cc1)Nc1ccc(Cl)c(Cl)c1` [Compound 31, N-tert-butyl-[1-(4-chlorophenylhydrazono)-1-(3,4-dichlorophenylamino)]acetamide], 10.5 µM; in that of `CC(C)(C)C(=O)C(=NNc1ccc(Cl)cc1)Nc1cc(F)cc(F)c1` [Compound 34, 1-(4-chlorophenylhydrazono)-1-(3,5-difluorophenylamino)-3,3-dimethyl-2-butanone], 1.22 µM. For the molecule `CC(C)(C)C(=O)C(=NNc1ccc(Cl)cc1)Nc1cc(Cl)nc(Cl)c1` [Compound 35, 1-(4-chlorophenylhydrazono)-1-(2,6-dichloropyridin-4-ylamino)-3,3-dimethyl-2-butanone], the 50% inhibitory concentration (IC50) was found to be 7.49 µM. As for `CC(C)(C)C(=O)C(=NNc1ccc(Cl)cc1)Nc1cccc(C(F)(F)F)c1` [Compound 36, 1-(4-chlorophenylhydrazono)-1-(3-trifluoromethylphenylamino)-3,3-dimethyl-2-butanone], the half-inhibitory concentration (IC50) came to 2.53 µM. In the case of `CC(C)(C)C(=O)C(=NNc1ccc(Cl)cc1)Nc1cc(Cl)cc(Cl)c1` [Compound 37, 1-(4-chlorophenylhydrazono)-1-(3,5-dichlorophenylamino)-3,3-dimethyl-2-butanone] it was 0.49 µM. With `CC(C)(C)C(=O)C(=NNc1ccc(Cl)cc1)Nc1ccc(Cl)c(Cl)c1` [Compound 38, 1-(4-chlorophenylhydrazono)-1-(3,4-dichlorophenylamino)-3,3-dimethyl-2-butanone], the half-inhibitory concentration (IC50) stood at 0.31 µM. In the case of `CC(C)(C)C(=O)C(=NNc1ccccc1)Nc1cc(Cl)cc(Cl)c1` [Compound 51, 1-(3,5-dichlorophenylamino)-1-(phenylhydrazono)-3,3-dimethyl-2-butanone] it was 2.44 µM; in that of `CC(C)(C)C(=O)C(=NNc1ccc(F)cc1)Nc1ccc(Cl)cc1` [Compound 55, 1-(4-chlorophenylamino)-1-(4-fluorophenylhydrazono)-3,3-dimethyl-2-butanone], 2.75 µM. For the molecule `CC(C)(C)C(=O)C(=NNc1ccc(F)cc1)Nc1ccc(Br)cc1` [Compound 56, 1-(4-bromophenylamino)-1-(4-fluorophenylhydrazono)-3,3-dimethyl-2-butanone], the concentration for half-maximal inhibition (IC50) was 2.16 µM. Consider `CC(C)(C)C(=O)C(=NNc1ccc(F)cc1)Nc1ccc(C(F)(F)F)cc1` [Compound 58, 1-(4-fluorophenylhydrazono)-1-(4-trifluoromethylphenylamino)-3,3-dimethyl-2-butanone], for which the IC50 came out at 5.72 µM. In the case of `CC(C)(C)C(=O)C(=NNc1ccc(F)cc1)Nc1cc(Cl)cc(Cl)c1` [Compound 59, 1-(3,5-dichlorophenylamino)-1-(4-fluorophenylhydrazono)-3,3-dimethyl-2-butanone] it was 1.39 µM. The result for `CC(C)(C)C(=O)C(=NNc1ccc(F)cc1)Nc1ccc(Cl)c(Cl)c1` [Compound 60, 1-(3,4-dichlorophenylamino)-1-(4-fluorophenylhydrazono)-3,3-dimethyl-2-butanone] reads 1.02 µM. The result for `CC(C)(C)C(=O)C(=NNc1ccc(C(F)(F)F)cc1)Nc1cccc(F)c1` [Compound 66, 1-(3-fluorophenylamino)-1-(4-trifluoromethylphenylhydrazono)-3,3-dimethyl-2-butanone] reads 7.05 µM; that for `CC(C)(C)C(=O)C(=NNc1ccc(C(F)(F)F)cc1)Nc1ccc(Cl)cc1` [Compound 68, 1-(4-chlorophenylamino)-1-(4-trifluoromethylphenylhydrazono)-3,3-dimethyl-2-butanone], 9.09 µM. Take `CC(C)(C)C(=O)C(=NNc1ccc(C(F)(F)F)cc1)Nc1ccc(Cl)c(Cl)c1` [Compound 72, 1-(3,4-dichlorophenylamino)-1-(4-trifluoromethylphenylhydrazono)-3,3-dimethyl-2-butanone]: the half-inhibitory concentration (IC50) was 3.64 µM. The result for `CC(C)(C)C(=O)C(=NNc1ccc(Br)cc1)Nc1ccc(C#N)cc1` [Compound 77, 1-(4-bromophenylhydrazono)-1-(4-cyanophenylamino)-3,3-dimethyl-2-butanone] reads 1.51 µM; that for `CC(C)(C)C(=O)C(=NNc1ccc(C#N)cc1)Nc1cccc(F)c1` [Compound 81, 1-(4-cyanophenylhydrazono)-1-(3-fluorophenylamino)-3,3-dimethyl-2-butanone], 5.52 µM; that for `CC(C)(C)C(=O)C(=NNc1ccc(C#N)cc1)Nc1ccc(F)cc1` [Compound 82, 1-(4-cyanophenylhydrazono)-1-(4-fluorophenylamino)-3,3-dimethyl-2-butanone], 5.07 µM.

Broadly, the IC50 is the midpoint of a concentration-inhibition curve.

(Values after patent US8546452B2, “S1P3 receptor antagonist” (TOA Eiyo Ltd., priority 2005, dated 2013).)
